Values of other authors, collected in US20240238224A1, “COMPOSITION FOR LOCAL ANAESTHESIA AND USES THEREOF” (priority 2023, published 2024).

Tested on: test teeth

CCCCN1CCCCC1C(=O)Nc1c(C)cccc1C (centres unmarked) [bupivacaine, 1-butyl-N-(2,6-dimethylphenyl)piperidine-2-carboxamide]
effectiveness compared with tetracaine (reported in U.S. Pat. No. 8,580,282 B2, cols. 7, 13, 14): not as effective as tetracaine

CCCCNc1ccc(C(=O)OCCN(C)C)cc1 [tetracaine, 2-(dimethylamino)ethyl 4-(butylamino)benzoate]
effectiveness for inducing pulpal anesthesia, 4% versus 3% tetracaine (non-injected formulation with vasoconstrictor, reported in U.S. Pat. No. 8,580,282 B2): 4% tetracaine is less effective than 3%
